Laboratory results reported in US8906914B2, “Ethylene diamine modulators of fatty acid hydrolase” (priority 2009, dated 2014).
Where a name gives a salt, the structure may show the parent alone. One block for each compound: values may come before it.

Experiments:
Rat FAAH-1 = molecular target: T1, Rat FAAH-1 (Rattus norvegicus, UniProt P97612); test: Rat FAAH-1 assay (Assay Method 2), 3H-anandamide hydrolysis in cell homogenate; assay type: biochemical
T1 construct: expressed in transfected cells
T1 sequence (P97612 1-579): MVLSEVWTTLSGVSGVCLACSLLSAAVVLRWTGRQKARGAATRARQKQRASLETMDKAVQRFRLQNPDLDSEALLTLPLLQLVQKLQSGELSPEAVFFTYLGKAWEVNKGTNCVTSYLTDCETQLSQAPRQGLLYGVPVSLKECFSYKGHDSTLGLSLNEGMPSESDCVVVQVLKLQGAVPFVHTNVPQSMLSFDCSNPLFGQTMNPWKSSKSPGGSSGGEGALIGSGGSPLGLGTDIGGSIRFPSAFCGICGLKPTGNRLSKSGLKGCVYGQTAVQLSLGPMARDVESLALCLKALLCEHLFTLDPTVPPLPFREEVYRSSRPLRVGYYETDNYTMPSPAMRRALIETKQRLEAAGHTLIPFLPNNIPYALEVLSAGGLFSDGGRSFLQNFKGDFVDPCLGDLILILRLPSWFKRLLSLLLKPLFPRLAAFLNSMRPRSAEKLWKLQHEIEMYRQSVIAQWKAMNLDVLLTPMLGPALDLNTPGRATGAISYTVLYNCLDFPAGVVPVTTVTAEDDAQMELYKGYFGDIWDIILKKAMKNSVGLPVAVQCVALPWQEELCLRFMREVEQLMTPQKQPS
Procedure: A. Transfection of Cells with Rat FAAH-1
(§1) A 10-cm tissue culture dish with a confluent monolayer of SK-N-MC cells was split 2 days (d) prior to transfection. Using sterile technique, the media was removed and the cells were detached from the dish by the addition of trypsin. One fifth of the cells were then placed onto a new 10-cm dish. Cells were grown in a 37° C. incubator with 5% CO2 in Minimal Essential Media Eagle with 10% Fetal Bovine Serum. After 2 d, cells were approximately 80% confluent. These cells were removed from the dish with trypsin and pelleted in a clinical centrifuge. The pellet was re-suspended in 400 μL complete media and transferred to an electroporation cuvette with a 0.4 cm gap between the electrodes. Supercoiled rat FAAH cDNA (1 μg) was added to the cells and mixed. The voltage for the electroporation was set at 0.25 kV, and the capacitance was set at 960 μF. After electroporation, the cells were diluted into complete media (10 mL) and plated onto four 10-cm dishes. Because of the variability in the efficiency of electroporation, four different concentrations of cells were plated. The ratios used were 1:20, 1:10, and 1:5, with the remainder of the cells being added to the fourth dish. The cells were allowed to recover for 24 h before adding the selection media (complete media with 600 μg/mL G418). After 10 d, dishes were analyzed for surviving colonies of cells. Dishes with well-isolated colonies were used. Cells from individual colonies were isolated and tested.
(§2) The assay mixture consisted of 50 μL of the cell homogenate, 10 μL of the test compound, and 40 μL of anandamide [1-^3H-ethanolamine] (^3H-AEA, Perkin-Elmer, 10.3 Ci/mmol), which was added last, for a final tracer concentration of 80 nM. The reaction mixture was incubated at rt for 1 h. During the incubation, 96-well Multiscreen filter plates (catalog number MAFCNOB50; Millipore, Bedford, Mass., USA) were loaded with 25 μL of activated charcoal (Multiscreen column loader, catalog number MACL09625, Millipore) and washed once with 100 μL of MeOH. Also during the incubation, 96-well DYNEX MicroLite plates (catalog number NL510410) were loaded with 100 μL of MicroScint40 (catalog number 6013641, Packard Bioscience, Meriden, Conn., USA). After the 1 h incubation, 60 μL of the reaction mixture were transferred to the charcoal plates, which were then assembled on top of the DYNEX plates using Centrifuge Alignment Frames (catalog number MACF09604, Millipore). The unbound labeled ethanolamine was centrifuged through to the bottom plate (5 min at 2000 rpm), which was preloaded with the scintillant, as described above. The plates were sealed and left at rt for 1 h before counting on a Hewlett Packard TopCount.
(§3) Where activity is shown as greater than (>) a particular value, the value is the solubility limit of the compound in the assay medium or the highest concentration tested in the assay.

FAAH = molecular target: T2, FAAH (Homo sapiens, UniProt O00519); test: Human FAAH assay (Assay Method 1), 3H-anandamide hydrolysis in cell homogenate; assay type: biochemical; set-up: expressed in transfected cells; alternatively T84 frozen cell pellets (endogenous FAAH)
T2 sequence (O00519 1-579): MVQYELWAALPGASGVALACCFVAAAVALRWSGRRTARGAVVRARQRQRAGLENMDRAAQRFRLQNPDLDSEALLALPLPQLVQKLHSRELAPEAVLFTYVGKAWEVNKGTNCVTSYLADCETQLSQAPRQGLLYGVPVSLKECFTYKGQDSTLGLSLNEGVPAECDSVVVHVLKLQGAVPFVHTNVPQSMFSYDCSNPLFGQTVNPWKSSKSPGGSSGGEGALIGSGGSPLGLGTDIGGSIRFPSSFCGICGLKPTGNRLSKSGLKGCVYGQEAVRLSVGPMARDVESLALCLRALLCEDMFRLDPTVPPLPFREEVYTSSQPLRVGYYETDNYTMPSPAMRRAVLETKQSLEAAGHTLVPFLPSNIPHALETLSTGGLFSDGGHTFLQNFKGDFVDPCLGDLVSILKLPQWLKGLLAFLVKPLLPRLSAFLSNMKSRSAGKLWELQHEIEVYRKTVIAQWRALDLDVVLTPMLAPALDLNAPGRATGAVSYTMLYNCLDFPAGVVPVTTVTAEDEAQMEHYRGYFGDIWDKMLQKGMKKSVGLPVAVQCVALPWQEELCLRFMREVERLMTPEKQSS
Procedure: A. Transfection of Cells with Human FAAH
as §1, with “Supercoiled human” for “Supercoiled rat”
as §2, with “[1-3H-ethanolamine]” for “[1-^3H-ethanolamine]”
as §3

IC50 (Rat FAAH-1): 6000 nM
IC50 (FAAH): 1200 nM
SMILES: COc1ccccc1[C@@H](N)CNc1cc(-c2ccc(C(F)(F)F)c(Cl)c2)ncn1 [Example 56, (1R)—N^2-[6-(3-Chloro-4-trifluoromethyl-phenyl)-pyrimidin-4-yl]-1-(2-methoxy-phenyl)-ethane-1,2-diamine]

IC50 (Rat FAAH-1): 280 nM
IC50 (FAAH): 170 nM
SMILES: NC(CNc1cc(-c2ccc(C(F)(F)F)c(Cl)c2)ncn1)c1ccccc1F (stereo not shown) [Example 35, N^2-[6-(3-Chloro-4-trifluoromethyl-phenyl)-pyrimidin-4-yl]-1-(2-fluoro-phenyl)-ethane-1,2-diamine]

IC50 (Rat FAAH-1): 5000 nM
IC50 (FAAH): 1000 nM
SMILES: N[C@H](CNc1cc(-c2ccc(C(F)(F)F)c(Cl)c2)ncn1)c1ccc(F)c(F)c1 [Example 40, (1S)—N^2-[6-(3-Chloro-4-trifluoromethyl-phenyl)-pyrimidin-4-yl]-1-(3,4-difluoro-phenyl)-ethane-1,2-diamine, trifluoroacetic acid salt]

IC50 (Rat FAAH-1): 3000 nM
IC50 (FAAH): 3000 nM
SMILES: N[C@H](CNc1cc(-c2ccc(C(F)(F)F)c(Cl)c2)ncn1)c1ccc(F)c(Cl)c1 [Example 46, (1S)—N^2-1-(3-Chloro-4-fluoro-phenyl)-[6-(3-chloro-4-trifluoromethyl-phenyl)-pyrimidin-4-yl]-ethane-1,2-diamine]

IC50 (Rat FAAH-1): 60 nM
IC50 (FAAH): 50 nM
SMILES: N[C@@H](CNc1cc(-c2ccc(C(F)(F)F)c(Cl)c2)ncn1)c1ccccc1 [Example 1, (1R)—N^2-{6-[3-Chloro-4-(trifluoromethyl)phenyl]pyrimidin-4-yl}-1-phenylethane-1,2-diamine hydrochloride acid salt]

The remaining lines, values behind:

SMILES: N[C@@H](CNc1cc(-c2cc(F)c(OC(F)F)c(F)c2)ncn1)c1ccccc1 [Example 12, (1R)—N^2-{6-[4-(Difluoromethoxy)-3,5-difluorophenyl]pyrimidin-4-yl}-1-phenylethane-1,2-diamine hydrochloride acid salt]
IC50 (Rat FAAH-1): 100 nM
IC50 (FAAH): 12 nM

SMILES: N[C@@H](CNc1cc(-c2ccc(C(F)(F)F)c(Cl)c2)ncn1)c1ccc2ccccc2c1 [Example 51, (1R)—N^2-[6-(3-Chloro-4-trifluoromethyl-phenyl)-pyrimidin-4-yl]-1-naphthalen-2-yl-ethane-1,2-diamine]
IC50 (Rat FAAH-1): 40 nM
IC50 (FAAH): 125 nM

SMILES: N[C@@H](CNc1cc(-c2ccc(Cl)c(C(F)(F)F)c2)ncn1)c1ccccc1 [Example 17, (1R)—N^2-{6-[4-Chloro-3-(trifluoromethyl)phenyl]pyrimidin-4-yl}-1-phenylethane-1,2-diamine hydrochloride acid salt]
IC50 (Rat FAAH-1): 900 nM
IC50 (FAAH): 250 nM

SMILES: CC(C)(C)OC(=O)N[C@@H](CNc1cc(-c2ccc(C(F)(F)F)c(Cl)c2)ncn1)c1ccccc1 [Example 2, (1R)-{2-[6-(3-Chloro-4-trifluoromethyl-phenyl)-pyrimidin-4-ylamino]-1-phenyl-ethyl}-carbamic acid tert-butyl ester]
IC50 (Rat FAAH-1): 8000 nM
IC50 (FAAH): 330 nM

SMILES: N[C@@H](CNc1cc(-c2ccc3c(C(F)(F)F)noc3c2)ncn1)c1ccccc1 [Example 13, (1R)-1-Phenyl-N^2-[6-(3-(trifluoromethyl)-benzo[d]isoxazol-6-yl)pyrimidin-4-yl]-ethane-1,2-diamine hydrochloride acid salt]
IC50 (Rat FAAH-1): 71 nM
IC50 (FAAH): 44 nM

SMILES: N#Cc1ccc([C@@H](N)CNc2cc(-c3ccc(C(F)(F)F)c(Cl)c3)ncn2)cc1 [Example 34, (1R)-4-{1-Amino-2-[6-(3-chloro-4-trifluoromethyl-phenyl)-pyrimidin-4-ylamino]-ethyl}-benzonitrile]
IC50 (Rat FAAH-1): 130 nM
IC50 (FAAH): 77 nM

SMILES: N[C@@H](CNc1cc(-c2ccc(C(F)(F)F)cc2)ncn1)c1ccccc1 [Example 5, (1R)-1-Phenyl-N^2-{6-[4-(trifluoromethyl)phenyl]pyrimidin-4-yl}ethane-1,2-diamine hydrochloride acid salt]
IC50 (Rat FAAH-1): 1000 nM
IC50 (FAAH): 130 nM

SMILES: N[C@@H](CNc1cc(-c2ccc(SC(F)(F)F)cc2)ncn1)c1ccccc1 [Example 11, (1R)-1-Phenyl-N^2-(6-{4-[(trifluoromethyl)sulfanyl]phenyl}pyrimidin-4-yl)ethane-1,2-diamine hydrochloride acid salt]
IC50 (Rat FAAH-1): 170 nM
IC50 (FAAH): 19 nM

SMILES: N[C@H](CNc1cc(-c2ccc(C(F)(F)F)c(Cl)c2)ncn1)c1ccc(Cl)c(Cl)c1 [Example 42, (1S)—N^2-[6-(3-Chloro-4-trifluoromethyl-phenyl)-pyrimidin-4-yl]-1-(3,4-dichloro-phenyl)-ethane-1,2-diamine]
IC50 (Rat FAAH-1): 5000 nM
IC50 (FAAH): 8000 nM
